{"source": "paper PMC5430895", "about": "(Scientific Reports, 2017)", "molecules": {"B1": {"name": "hOCTN1 (Homo sapiens) (protein)", "chain": "MRDYDEVIAFLGEWGPFQRLIFFLLSASIIPNGFNGMSVVFLAGTPEHRCRVPDAANLSSAWRNNSVPLRLRDGREVPHSCSRYRLATIANFSALGLEPGRDVDLGQLEQESCLDGWEFSQDVYLSTVVTEWNLVCEDNWKVPLTTSLFFVGVLLGSFVSGQLSDRFGRKNVLFATMAVQTGFSFLQIFSISWEMFTVLFVIVGMGQISNYVVAFILGTEILGKSVRIIFSTLGVCTFFAVGYMLLPLFAYFIRDWRMLLLALTVPGVLCVPLWWFIPESPRWLISQRRFREAEDIIQKAAKMNNIAVPAVIFDSVEELNPLKQQKAFILDLFRTRNIAIMTIMSLLLWMLTSVGYFALSLDAPNLHGDAYLNCFLSALIEIPAYITAWLLLRTLPRRYIIAAVLFWGGGVLLFIQLVPVDYYFLSIGLVMLGKFGITSAFSMLYVFTAELYPTLVRNMAVGVTSTASRVGSIIAPYFVYLGAYNRMLPYIVMGSLTVLIGILTLFFPESLGMTLPETLEQMQKVKWFRSGKKTRDSMETEENPKVLITAF"}}, "key": {"[1]": {"system": "saracatinib uptake into RASF", "test": "Uptake competition experiments: saracatinib uptake by RASF in presence of transporter substrates", "details": "saracatinib 10 µM"}, "[2]": {"substrate": "CN1CCN(CCOc2cc(OC3CCOCC3)c3c(Nc4c(Cl)ccc5c4OCO5)ncnc3c2)CC1", "test": "cells, lysate or membranes named", "details": "other: hOCTN1-HEK293 cells, 10 min incubation; pH 7.4; 37.0 °C", "experimental": "Twenty-four hours before starting experiments hOCTN1 expression was induced by 1 mg/l doxycycline (Sigma-Aldrich, Steinheim, Germany). Cells were grown at standard conditions. […] Cell number was evaluated with a CASEYTT cell counter (Roche Innovatis, Reutlingen, Germany).\nAfter incubation, cells were washed with ice-cold PBS and hypoosmotic lysis was induced with 0.1% formic acid. […] The mobile phase consisted of (A) acetonitrile with 0.1% formic acid and (B) 0.1% formic acid and was delivered at 0.3 ml/min in a gradient program. After delivering 100% B for 3 min, a linear gradient to 100% A was applied within 7 min and maintained for 5 min. Thereafter, in order to re-equilibrate the column, a simple isocratic elution step with 100% eluent B was applied for at least 6 min. […] Separation was carried out on an Accucore C18 column equipped with a C18 guard column. The data were acquired by ChromQuest 5.0 chromatography software."}}, "data": [{"molecule": "C[n+]1ccc(-c2ccccc2)cc1.[I-]", "note": "[MPP^+]", "values": [{"measurement": "effect on saracatinib uptake", "setting": "[1]; MPP+ 20 µM (inhibitor of hOCT1-3)", "result": "did not influence saracatinib uptake"}]}, {"molecule": "C[N+](C)(C)[C@@H](Cc1c[nH]c(=S)[nH]1)C(=O)[O-]", "note": "[Ergothioneine, L-(+)-ergothioneine]", "values": [{"measurement": "net accumulation rate of saracatinib, % of the control", "setting": "[1]; ergothioneine 40 µM (OCTN1 substrate)", "result": 53, "unit": "%"}]}, {"molecule": "B1", "values": [{"measurement": "Km", "setting": "[2]", "result": "42 ± 11", "unit": "µM"}]}]}
